From the NIST ThermoML archive (doi:10.1016/j.fluid.2016.08.014)
± gives the expanded uncertainty stated by the source.

Columns and labels:
[1] = Liquid, Vibrating tube method
[2] = refractive index (Na D-line) (dimensionless); conditions: 101.33 kPa, Liquid, Standard Abbe refractometry

NCCN [ethane-1,2-diamine]
[1]
Conditions	mass density [kg/m3]
293.15 K, 200 kPa	898 ± 1
293.15 K, 2500 kPa	899 ± 1
293.15 K, 5100 kPa	900 ± 1
293.15 K, 10000 kPa	903 ± 1
293.15 K, 15400 kPa	905 ± 1
293.15 K, 19800 kPa	907 ± 1
293.15 K, 25100 kPa	909 ± 1
293.15 K, 30200 kPa	911 ± 1
298.15 K, 101.33 kPa	895.323 ± 4
303.15 K, 300 kPa	890 ± 1
303.15 K, 2500 kPa	891 ± 1
303.15 K, 5000 kPa	892 ± 1
303.15 K, 10200 kPa	893 ± 1
303.15 K, 15000 kPa	896 ± 1
303.15 K, 20500 kPa	898 ± 1
303.15 K, 25100 kPa	900 ± 1
303.15 K, 30100 kPa	902 ± 1
313.15 K, 300 kPa	880 ± 1
313.15 K, 2500 kPa	880 ± 1
313.15 K, 5100 kPa	882 ± 1
313.15 K, 10000 kPa	884 ± 1
313.15 K, 15100 kPa	887 ± 1
313.15 K, 20100 kPa	889 ± 1
313.15 K, 25400 kPa	892 ± 1
313.15 K, 30400 kPa	894 ± 1
323.15 K, 200 kPa	870 ± 1
323.15 K, 2500 kPa	870 ± 1
323.15 K, 5100 kPa	872 ± 1
323.15 K, 10000 kPa	875 ± 1
323.15 K, 15000 kPa	878 ± 1
323.15 K, 19900 kPa	880 ± 1
323.15 K, 25100 kPa	882 ± 1
323.15 K, 29700 kPa	885 ± 1
333.15 K, 200 kPa	860 ± 1
333.15 K, 2500 kPa	861 ± 1
333.15 K, 5000 kPa	863 ± 1
333.15 K, 10000 kPa	866 ± 1
333.15 K, 15000 kPa	868 ± 1
333.15 K, 20000 kPa	871 ± 1
333.15 K, 25000 kPa	874 ± 1
333.15 K, 30000 kPa	876 ± 1
343.15 K, 200 kPa	850 ± 1
343.15 K, 2500 kPa	852 ± 1
343.15 K, 5100 kPa	853 ± 1
343.15 K, 10000 kPa	856 ± 1
343.15 K, 15000 kPa	860 ± 1
343.15 K, 20000 kPa	862 ± 1
343.15 K, 25100 kPa	865 ± 1
343.15 K, 30100 kPa	867 ± 1
353.15 K, 200 kPa	840 ± 1
353.15 K, 2500 kPa	842 ± 1
353.15 K, 5000 kPa	844 ± 1
353.15 K, 10200 kPa	847 ± 1
353.15 K, 15100 kPa	850 ± 1
353.15 K, 20000 kPa	853 ± 1
353.15 K, 25100 kPa	856 ± 1
353.15 K, 30100 kPa	859 ± 1
363.15 K, 200 kPa	830 ± 1
363.15 K, 2600 kPa	832 ± 1
363.15 K, 5100 kPa	834 ± 1
363.15 K, 10100 kPa	838 ± 1
363.15 K, 15000 kPa	840 ± 1
363.15 K, 20100 kPa	844 ± 1
363.15 K, 25600 kPa	847 ± 1
363.15 K, 30000 kPa	850 ± 1
373.15 K, 200 kPa	820 ± 1
373.15 K, 2500 kPa	822 ± 1
373.15 K, 5100 kPa	825 ± 1
373.15 K, 10100 kPa	828 ± 1
373.15 K, 15000 kPa	831 ± 1
373.15 K, 20100 kPa	835 ± 1
373.15 K, 25100 kPa	838 ± 1
373.15 K, 30200 kPa	841 ± 1
383.15 K, 200 kPa	810 ± 1
383.15 K, 2500 kPa	813 ± 1
383.15 K, 5200 kPa	815 ± 1
383.15 K, 10000 kPa	818 ± 1
383.15 K, 15200 kPa	822 ± 1
383.15 K, 20500 kPa	826 ± 1
383.15 K, 25000 kPa	829 ± 1
383.15 K, 30300 kPa	832 ± 1

[2]
Conditions	refractive index
293.15 K	1.45676 ± 0.00033
298.15 K	1.45453 ± 0.00033
